# Measurements taken from the SangsterLogP compilation.
# Tests used:
# [1] = method code SF-AS, from PMID: 1705424; conditions: pH 7.4
# [2] = method code SF-AS, from DOI: 10.1021/jf60177a051
# [3] = method code SF-AS, from DOI: 10.1021/jm00162a004, PMID: 3023612
# [4] = method code SF, from DOI: 10.1177/1087057110396372, PMID: 21343602; conditions: pH 7.4
# [5] = method code SF-HPLC, from DOI: 10.1002/jps.10112, PMID: 12115830; conditions: pH 7.4
# [6] = method code SF, from DOI: 10.1016/s0968-0896(00)00025-0, PMID: 10882003
# [7] = method code SF-AS, from DOI: 10.1021/js960328j, PMID: 9050798; conditions: pH 6.6
# [8] = method code SF-AS, from DOI: 10.1007/s001280000002, PMID: 10757653
# [9] = method code SF-EPR, from DOI: 10.1007/bf01870789, PMID: 2549250; conditions: pH 12.0
# [10] = method code SF-GLC, from DOI: 10.1016/s0021-9673(00)81319-9
# [11] = method code SF, from DOI: 10.1055/s-0038-1624171, PMID: 6548017; conditions: pH 7.4
# [12] = not given; remark: listed apart in the source
# [13] = method code SF-AS, from DOI: 10.1016/s0006-2952(02)01074-2, PMID: 12392818; conditions: pH 7.4
# [14] = not given; remark: listed apart in the source
# [15] = method code SF-HPLC, from DOI: 10.1021/js970451q, PMID: 9687340; conditions: pH 6.0
# [16] = not given; remark: listed apart in the source
# [17] = method code SF, from Ganellin, C. R., & Durant, G. J. (1981). Histamine H2-receptor agonists and antagonists. Burgers Medicinal Chemistry, 3, 487-552.; conditions: pH 9.2
# [18] = not given; remark: listed apart in the source
# [19] = method code SF-GLC, from DOI: 10.1016/0045-6535(95)00311-u
# [20] = method code SF-RC,AS, from DOI: 10.1021/es60170a013; conditions: pH 8.7
# [21] = method code SF-TN, from DOI: 10.1002/ardp.19763091008, PMID: 1008678
# [22] = method code SF-AS, from DOI: 10.1016/s0021-9673(03)00617-4, PMID: 12830921
# [23] = method code SF-RC, from DOI: 10.1111/j.1399-3054.1990.tb08712.x
# [24] = not given; remark: listed apart in the source
# [25] = method code SF-RC, from DOI: 10.1023/a:1015825912542, PMID: 1808606; conditions: pH 7.2
# [26] = method code SF, from DOI: 10.1016/0378-5173(87)90234-1; conditions: pH 4.0
# [27] = method code SF-GLC, from DOI: 10.1021/es00171a006
# [28] = not given; remark: listed apart in the source
# [29] = method code SF-RC, from DOI: 10.1248/cpb.39.104, PMID: 2049793; conditions: pH 7.4
# [30] = method code SF-AS, from DOI: 10.1016/0223-5234(96)88239-0; conditions: pH 2.0
# [31] = method code SF-AS, from DOI: 10.1016/s0090-9556(25)07961-9, PMID: 6130927; conditions: pH 12.0
# [32] = method code SF-RC, from PMID: 3382460; conditions: pH 7.0
# [33] = not given; remark: listed apart in the source
# [34] = method code SF, from DOI: 10.1093/jnci/60.2.345, PMID: 621753
# [35] = method code SF-HPLC, from DOI: 10.1016/s0928-0987(98)00030-x, PMID: 9845810; conditions: pH 7.4
# [36] = method code SF-HPLC, from DOI: 10.1002/jps.2600841008, PMID: 8801331; conditions: pH 3.1
# [37] = method code SF-RC, from DOI: 10.1016/s0969-8051(00)00080-9, PMID: 10832080; conditions: pH 13.0
# [38] = method code SF-AS, from DOI: 10.1007/s00044-012-0399-x
# [39] = method code SF-AS, from PMID: 301777
# [40] = method code G-GLC, from DOI: 10.1021/es00169a004
# [41] = method code SF-HPLC, from DOI: 10.1016/0006-2952(84)90322-8, PMID: 6704182
# [42] = not given; remark: listed apart in the source
# [43] = method code SF-GLC, from DOI: 10.1016/j.chemosphere.2013.04.065, PMID: 23732011
# [44] = not given; remark: listed apart in the source
# [45] = not given; remark: listed apart in the source
# [46] = not given; remark: listed apart in the source
# [47] = method code SF-AS, from DOI: 10.1002/jps.2600620542, PMID: 4705706
# [48] = not given; remark: listed apart in the source
smiles,measurement,setting,value
CC(C)Cn1cnc2c1c(=O)n(C)c(=O)n2C,logD,[1],1.28
Cc1nc(C)c(C(=O)Nc2ccccc2)s1,logP,[2],1.08
CCCC1(CCC)CCC=[N+]1[O-],logP,[3],0.69
CC1(C)CC(C(=O)O)CC(C)(C)N1O,logP,,1.25
c1ccc(Nc2ccccc2)cc1,logD,[4],3.57
CC(SSc1ncc[nH]1)c1ccccc1 (centres undefined),logD,[5],3.39
Cc1[nH]c(=O)c(C#N)cc1-c1ccncc1,logP,[6],0.42
CCCS(=O)c1ccc2[nH]c(NC(=O)OC)nc2c1 (centres undefined),logD,[7],1.27
CCOC(=O)c1cccc(C(=O)OCC)n1,logP,[8],3
CN(C)C1CC(C)(C)N(O)C(C)(C)C1,logD,[9],1.13
Clc1cccc(-c2ccccc2)c1,logP,[10],4.71
O=[N+]([O-])c1nccn1CCOc1ccc(I)cc1,logD,[11],2.84
C=CC(=O)OCC(CC)CCCC (centres undefined),logP,[12],4.29
CC(=O)c1cc2ccccc2oc1=O,logD,[13],1.5
CC(=O)c1ccc(C(C)C)cc1,logP,[14],2.98
COc1cc(C)nc(-n2nc(C)cc2OC)n1,logD,[15],1.35
CC(C)NCC(O)c1ccc(Cl)c(Cl)c1 (centres undefined),logP,[16],3.32
CNC(=S)NCCCCc1nc[nH]c1C,logD,[17],0.85
c1cc2c3c(cccc3c1)CC2,logP,[18],3.98
CCCCCCCCCC(Cl)(Cl)Cl,logP,[19],5.85
Nc1ccc(-c2ccc(N)c(Cl)c2)cc1Cl,logD,[20],3.51
CCNC(=O)C1C2CC3C(OC(=O)C31)C2O (centres undefined),logP,[21],-0.35
CCc1c(C)nc2ccccn2c1=O,logP,[22],1.58
c1ccc(CNc2ncnc3[nH]cnc23)cc1,logP,[23],1.57
Clc1cc(Cl)c(Oc2ccccc2)cc1Cl,logP,[24],5.44
CC(=O)NC(Cc1ccccc1)C(N)=O (centres undefined),logD,[25],0.05
O=C(c1ccccc1)n1c(=O)[nH]cc(F)c1=O,logD,[26],0.8
Clc1cc(Cl)c2c(c1Cl)Oc1ccccc1O2,logP,[27],5.57
Nc1ccc(S(=O)(=O)Nc2cccc(Cl)c2Cl)cc1,logP,[28],2.62
CNC(=S)NN=C(C)C(C)(C)C(C)=NNC(=S)NC,logD,[29],2.51
Cn1c(C(=O)O)cnc1C(=O)c1ccc([N+](=O)[O-])cc1,logD,[30],2.14
CC(C)[C@@H](N)Cc1ccccc1,logD,[31],2.59
CNC(=O)OC1OC(=O)C2C3C=CC(C3)C12 (centres undefined),logD,[32],0.63
CCCCCCCCn1sc(Cl)c(Cl)c1=O,logP,[33],4.9
O=NN(CCCl)C(=O)NCCCCNC(=O)N(CCCl)N=O,logP,[34],0.9
Cc1ccc2c(c1)C(=O)N(CCO[N+](=O)[O-])CO2,logD,[35],2.41
O=C(O)CCCCc1ccccc1,logD,[36],2.73
CN1C2CCC1C(c1ccc(Cl)nc1)C2 (centres undefined),logD,[37],2.42
COC(=O)CN1Cc2ccccc2C1,logP,[38],-0.03
CCc1nc(N)nc(N)c1-c1ccc(Cl)c(Cl)c1,logP,[39],3.19
Clc1cc(Cl)c(-c2c(Cl)c(Cl)c(Cl)c(Cl)c2Cl)c(Cl)c1Cl,logP,[40],7.52
CC(=O)Nc1ccn([C@@H]2O[C@H](CO)[C@@H](O)[C@@H]2O)c(=O)n1,logP,[41],-1.35
CCCOCCc1ccc(O)c(O)c1,logP,[42],1.64
C=CCOc1ccccc1OCC=C,logP,[43],2.7
CCCCOC(=O)COc1cc(Cl)c(Cl)cc1Cl,logP,[44],4.81
OC1(c2ccc(Cl)cc2)CCNCC1,logP,[45],1.98
O=C(O)c1cccc2ccccc12,logP,[46],2.78
O=C(c1ccncc1)c1ccc(Cl)cc1,logP,[47],2.61
O=S(c1cc(Cl)cc(Cl)c1O)c1cc(Cl)cc(Cl)c1O,logP,[48],4.13
